Experiment [1] concerns the target T1, cGMP-inhibited 3',5'-cyclic phosphodiesterase 3A (Homo sapiens, UniProt Q14432). The class given is functional.
Experiment [2] addresses 3',5'-cyclic-AMP phosphodiesterase 4A (Homo sapiens, UniProt P27815). The class given is functional.
Experiment [3] has as its target T2, Equilibrative nucleoside transporter 1 (Homo sapiens, UniProt Q99808).
T2 sequence (Q99808 whole entry): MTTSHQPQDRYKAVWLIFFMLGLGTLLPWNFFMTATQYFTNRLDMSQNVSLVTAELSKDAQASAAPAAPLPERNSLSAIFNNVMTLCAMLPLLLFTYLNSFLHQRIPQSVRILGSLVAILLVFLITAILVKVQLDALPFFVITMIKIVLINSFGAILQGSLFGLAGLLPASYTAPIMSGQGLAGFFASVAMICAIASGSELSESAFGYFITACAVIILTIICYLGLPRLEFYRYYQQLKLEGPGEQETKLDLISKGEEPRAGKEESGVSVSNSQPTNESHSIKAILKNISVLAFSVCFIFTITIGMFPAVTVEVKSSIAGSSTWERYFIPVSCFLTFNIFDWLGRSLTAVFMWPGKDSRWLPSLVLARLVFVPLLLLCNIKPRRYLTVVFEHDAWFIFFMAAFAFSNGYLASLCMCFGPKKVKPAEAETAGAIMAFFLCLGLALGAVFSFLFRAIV

Experiment [4] has as its target T1, cGMP-inhibited 3',5'-cyclic phosphodiesterase 3A. It counts as functional. This is another data set of the same source.
Experiment [5] has as its target D(1A) dopamine receptor (Homo sapiens, UniProt P21728). It counts as functional, cell-based.
Experiment [6] addresses D(3) dopamine receptor (Homo sapiens, UniProt P35462).
In experiment [7] the target is T3, Endothelin-1 receptor (Homo sapiens, UniProt P25101).
T3 sequence (P25101 whole entry): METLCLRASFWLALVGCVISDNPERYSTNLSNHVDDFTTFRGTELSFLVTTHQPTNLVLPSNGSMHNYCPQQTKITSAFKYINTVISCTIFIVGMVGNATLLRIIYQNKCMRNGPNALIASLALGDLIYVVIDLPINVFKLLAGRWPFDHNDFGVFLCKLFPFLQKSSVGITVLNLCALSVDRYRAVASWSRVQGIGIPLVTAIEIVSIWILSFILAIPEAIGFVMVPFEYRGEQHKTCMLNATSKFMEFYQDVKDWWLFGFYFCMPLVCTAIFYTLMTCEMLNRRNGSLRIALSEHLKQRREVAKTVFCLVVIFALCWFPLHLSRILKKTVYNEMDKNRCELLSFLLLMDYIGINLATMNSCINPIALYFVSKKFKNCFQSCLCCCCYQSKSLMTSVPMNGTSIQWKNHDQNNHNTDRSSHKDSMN

Experiment [8] concerns the target Glutamate receptor ionotropic, NMDA 1 (Rattus norvegicus, UniProt P35439).
Experiment [9] addresses T4, 5-hydroxytryptamine receptor 2C (Homo sapiens, UniProt P28335).
T4 sequence (P28335 whole entry): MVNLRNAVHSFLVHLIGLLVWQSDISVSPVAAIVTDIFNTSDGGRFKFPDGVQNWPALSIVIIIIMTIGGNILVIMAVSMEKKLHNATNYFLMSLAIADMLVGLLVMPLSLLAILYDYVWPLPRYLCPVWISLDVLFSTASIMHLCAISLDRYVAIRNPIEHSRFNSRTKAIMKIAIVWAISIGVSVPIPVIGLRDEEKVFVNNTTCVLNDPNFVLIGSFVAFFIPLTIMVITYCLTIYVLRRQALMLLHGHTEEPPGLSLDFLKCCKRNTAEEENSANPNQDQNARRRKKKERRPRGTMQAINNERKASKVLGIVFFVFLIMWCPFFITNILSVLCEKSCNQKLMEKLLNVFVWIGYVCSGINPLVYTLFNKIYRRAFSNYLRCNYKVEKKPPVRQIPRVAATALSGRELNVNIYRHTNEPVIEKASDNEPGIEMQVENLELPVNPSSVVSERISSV

Experiment [10] concerns the target T5, Prostaglandin G/H synthase 1 (Rattus norvegicus, UniProt Q63921).
T5 sequence (Q63921 whole entry): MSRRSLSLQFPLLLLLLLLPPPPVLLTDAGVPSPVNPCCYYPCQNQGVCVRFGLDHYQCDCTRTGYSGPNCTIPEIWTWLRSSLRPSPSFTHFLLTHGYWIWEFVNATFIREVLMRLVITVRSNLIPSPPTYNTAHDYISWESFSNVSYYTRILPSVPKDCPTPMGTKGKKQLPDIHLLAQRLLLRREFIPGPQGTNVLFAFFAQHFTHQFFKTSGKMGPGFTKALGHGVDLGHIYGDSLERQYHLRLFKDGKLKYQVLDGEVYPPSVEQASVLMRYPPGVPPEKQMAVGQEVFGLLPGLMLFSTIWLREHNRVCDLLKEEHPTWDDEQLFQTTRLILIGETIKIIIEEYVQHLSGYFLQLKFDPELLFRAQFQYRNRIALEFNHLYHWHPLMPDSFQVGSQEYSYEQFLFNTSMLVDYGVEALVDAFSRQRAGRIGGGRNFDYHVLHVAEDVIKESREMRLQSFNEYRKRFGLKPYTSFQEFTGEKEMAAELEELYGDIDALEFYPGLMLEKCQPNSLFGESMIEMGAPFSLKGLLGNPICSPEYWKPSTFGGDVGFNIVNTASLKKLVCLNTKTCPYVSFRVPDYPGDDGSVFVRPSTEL
It counts as functional.

Experiment [11] deals with 5-hydroxytryptamine receptor 2A (Homo sapiens, UniProt P28223). The class given is functional, cell-based.
Sequence of 5-hydroxytryptamine receptor 2A (P28223 whole entry): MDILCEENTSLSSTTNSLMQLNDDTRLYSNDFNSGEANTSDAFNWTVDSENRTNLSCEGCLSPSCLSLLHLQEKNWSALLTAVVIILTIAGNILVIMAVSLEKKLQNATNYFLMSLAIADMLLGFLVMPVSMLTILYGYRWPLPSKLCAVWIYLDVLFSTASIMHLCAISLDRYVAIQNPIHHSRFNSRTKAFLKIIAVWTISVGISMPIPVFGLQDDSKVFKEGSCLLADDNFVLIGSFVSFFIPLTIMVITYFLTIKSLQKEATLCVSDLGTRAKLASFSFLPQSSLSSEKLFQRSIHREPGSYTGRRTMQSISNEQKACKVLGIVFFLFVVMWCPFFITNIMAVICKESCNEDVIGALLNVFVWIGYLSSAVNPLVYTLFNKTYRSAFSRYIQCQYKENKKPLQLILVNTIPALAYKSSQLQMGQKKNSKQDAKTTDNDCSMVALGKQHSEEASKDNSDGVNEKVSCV
Further: assay procedure not described here.

Sequence of D(3) dopamine receptor (P35462 whole entry): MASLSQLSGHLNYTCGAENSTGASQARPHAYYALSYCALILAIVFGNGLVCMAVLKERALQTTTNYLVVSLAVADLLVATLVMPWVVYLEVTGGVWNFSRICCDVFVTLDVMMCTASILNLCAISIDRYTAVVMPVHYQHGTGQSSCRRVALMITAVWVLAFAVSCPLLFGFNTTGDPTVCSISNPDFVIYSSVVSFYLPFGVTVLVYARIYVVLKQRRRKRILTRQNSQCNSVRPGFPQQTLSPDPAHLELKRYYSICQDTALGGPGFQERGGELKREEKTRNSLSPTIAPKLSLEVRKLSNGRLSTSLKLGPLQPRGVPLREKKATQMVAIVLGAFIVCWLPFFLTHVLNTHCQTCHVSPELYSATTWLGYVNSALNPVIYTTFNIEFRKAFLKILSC
Sequence of 3',5'-cyclic-AMP phosphodiesterase 4A (P27815 whole entry): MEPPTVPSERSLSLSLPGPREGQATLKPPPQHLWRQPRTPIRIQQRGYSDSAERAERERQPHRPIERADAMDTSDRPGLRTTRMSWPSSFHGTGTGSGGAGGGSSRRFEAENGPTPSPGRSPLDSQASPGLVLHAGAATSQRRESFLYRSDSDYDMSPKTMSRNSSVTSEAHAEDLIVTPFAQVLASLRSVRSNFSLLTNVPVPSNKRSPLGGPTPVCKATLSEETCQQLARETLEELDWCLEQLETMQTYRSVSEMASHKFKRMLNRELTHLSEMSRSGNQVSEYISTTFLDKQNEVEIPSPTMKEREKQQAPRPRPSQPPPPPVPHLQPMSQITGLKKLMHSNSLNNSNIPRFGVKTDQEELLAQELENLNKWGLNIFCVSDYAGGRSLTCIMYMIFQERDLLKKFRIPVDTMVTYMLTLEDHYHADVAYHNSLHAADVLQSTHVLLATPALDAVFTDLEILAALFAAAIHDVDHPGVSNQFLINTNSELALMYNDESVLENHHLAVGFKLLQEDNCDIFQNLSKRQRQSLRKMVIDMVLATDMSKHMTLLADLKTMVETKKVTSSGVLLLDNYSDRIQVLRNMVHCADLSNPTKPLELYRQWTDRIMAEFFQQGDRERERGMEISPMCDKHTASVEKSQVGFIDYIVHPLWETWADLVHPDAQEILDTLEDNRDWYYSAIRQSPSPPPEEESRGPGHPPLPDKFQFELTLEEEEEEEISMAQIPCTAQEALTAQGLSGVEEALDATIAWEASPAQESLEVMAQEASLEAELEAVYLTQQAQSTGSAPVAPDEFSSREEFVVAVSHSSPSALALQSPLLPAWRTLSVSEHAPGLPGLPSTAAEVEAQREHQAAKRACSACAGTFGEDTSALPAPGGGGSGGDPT
T1 sequence (Q14432 whole entry): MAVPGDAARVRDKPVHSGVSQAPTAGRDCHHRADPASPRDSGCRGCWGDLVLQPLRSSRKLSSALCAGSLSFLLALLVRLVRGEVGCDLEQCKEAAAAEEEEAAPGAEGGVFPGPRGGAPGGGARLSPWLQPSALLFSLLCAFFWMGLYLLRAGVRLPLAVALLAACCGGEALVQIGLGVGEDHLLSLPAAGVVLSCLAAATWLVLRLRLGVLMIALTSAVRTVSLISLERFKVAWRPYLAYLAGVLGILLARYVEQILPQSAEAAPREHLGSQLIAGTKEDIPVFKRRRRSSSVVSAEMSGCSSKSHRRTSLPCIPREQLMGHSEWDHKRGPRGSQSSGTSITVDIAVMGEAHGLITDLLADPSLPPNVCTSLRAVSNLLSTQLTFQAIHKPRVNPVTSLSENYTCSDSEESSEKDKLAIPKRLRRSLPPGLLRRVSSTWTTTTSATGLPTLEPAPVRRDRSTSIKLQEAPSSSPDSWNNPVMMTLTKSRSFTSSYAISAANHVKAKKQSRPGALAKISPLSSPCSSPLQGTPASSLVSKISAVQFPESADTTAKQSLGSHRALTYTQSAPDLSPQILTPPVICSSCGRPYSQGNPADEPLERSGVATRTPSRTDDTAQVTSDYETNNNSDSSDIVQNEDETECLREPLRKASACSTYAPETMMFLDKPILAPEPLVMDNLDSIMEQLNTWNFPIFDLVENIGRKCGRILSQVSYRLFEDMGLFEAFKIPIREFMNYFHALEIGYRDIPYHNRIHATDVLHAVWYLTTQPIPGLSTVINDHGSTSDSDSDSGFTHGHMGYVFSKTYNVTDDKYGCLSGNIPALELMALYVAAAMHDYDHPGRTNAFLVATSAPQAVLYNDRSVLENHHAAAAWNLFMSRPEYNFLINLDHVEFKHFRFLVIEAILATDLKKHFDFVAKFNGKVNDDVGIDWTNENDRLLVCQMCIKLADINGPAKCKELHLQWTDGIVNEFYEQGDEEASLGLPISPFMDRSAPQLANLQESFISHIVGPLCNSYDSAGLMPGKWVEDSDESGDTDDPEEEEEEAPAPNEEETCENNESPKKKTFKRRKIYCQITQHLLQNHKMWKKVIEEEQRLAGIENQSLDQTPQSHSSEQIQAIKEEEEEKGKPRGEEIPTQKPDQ
Sequence of D(1A) dopamine receptor (P21728 whole entry): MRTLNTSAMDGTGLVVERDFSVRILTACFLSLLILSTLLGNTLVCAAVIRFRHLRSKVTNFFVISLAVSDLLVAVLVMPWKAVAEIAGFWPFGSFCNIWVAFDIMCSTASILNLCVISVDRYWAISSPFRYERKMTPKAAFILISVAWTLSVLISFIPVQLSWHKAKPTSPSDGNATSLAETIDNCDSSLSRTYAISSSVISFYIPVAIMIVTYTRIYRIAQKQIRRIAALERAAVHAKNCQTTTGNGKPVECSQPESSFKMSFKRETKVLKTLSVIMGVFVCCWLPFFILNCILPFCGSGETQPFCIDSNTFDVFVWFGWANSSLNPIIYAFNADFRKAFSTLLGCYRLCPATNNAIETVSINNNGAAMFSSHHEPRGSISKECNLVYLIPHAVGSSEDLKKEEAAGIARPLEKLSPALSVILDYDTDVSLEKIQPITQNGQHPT

Regarding `C[N+]1(C)CCC(OC(=O)C(O)(c2ccccc2)C2CCCC2)C1` (stereo not given) [GLYCOPYRRONIUM BROMIDE], the half-maximal activity concentration (AC50) in experiment [1], in [2], in [3] and in [4] was greater than 30 µM in each case.

As for `Cc1cn([C@H]2C=C[C@@H](CO)O2)c(=O)[nH]c1=O` [STAVUDINE], the AC50 was greater than 10 µM in experiment [5]; greater than 30 µM in [6]; greater than 30 µM in [7]; greater than 10 µM in [8]; greater than 30 µM in experiment [9]; greater than 30 µM in [1]. The AC50 in experiment [2], in experiment [10], in [3] and in experiment [4] was greater than 30 µM in each case.

For the molecule `C[N+](C)(C)CCO` [CHOLINE], the half-maximal activity concentration (AC50) in experiment [6], in experiment [1] and in experiment [2] was greater than 30 µM throughout.

Regarding `C[C@]12CC[C@@H]3c4ccc(O)cc4CC[C@H]3[C@@H]1C[C@@H](O)[C@@H]2O` [ESTRIOL], the AC50 in experiment [6], in experiment [1] and in experiment [2] was greater than 30 µM throughout.

For the molecule `CCCCCCOc1nsnc1C1=CCCN(C)C1` [XANOMELINE], the values for the concentration at half-maximal activity (AC50) in experiment [6], in experiment [1] and in experiment [2] were 0.273 µM, greater than 30 µM and 28.5 µM, respectively.

As for `CN1C(C(=O)Nc2ccccn2)=C(O)c2sc(Cl)cc2S1(=O)=O` [LORNOXICAM], the AC50 was greater than 10 µM in [5]; greater than 10 µM in experiment [8]; greater than 30 µM in experiment [11]; greater than 30 µM in [9]; 22 µM in experiment [10]; greater than 30 µM in [3]. For the same molecule, the half-maximal activity concentration (AC50) in experiment [4] is greater than 30 µM.

As to `CC(C)(S)[C@@H](N)C(=O)O` [PENICILLAMINE], the AC50 in [6], in experiment [1] and in experiment [2] was greater than 30 µM throughout.

Consider `CCc1oc2ccccc2c1C(=O)c1cc(I)c(O)c(I)c1` [BENZIODARONE], for which the concentration at half-maximal activity (AC50) in [6] is 8.59 µM; in [1], greater than 30 µM; in [2] it was 2.37 µM.

For `O=P1(NCCCl)OCCCN1CCCl` (stereo not given) [IFOSFAMIDE], the half-maximal activity concentration (AC50) in [5] is greater than 30 µM; in experiment [8], greater than 30 µM; in experiment [9], greater than 30 µM; in [10] it was greater than 30 µM; in experiment [3], greater than 30 µM; in [4], 12 µM.

As for `CCCSc1ccc2nc(NC(=O)OC)[nH]c2c1` [ALBENDAZOLE], the AC50 in [5] was greater than 10 µM; in experiment [8], greater than 10 µM; in experiment [9], greater than 30 µM; in [10], greater than 30 µM; in experiment [3], greater than 30 µM; in [4] it was greater than 30 µM.

For `CCC(C)n1ncn(-c2ccc(N3CCN(c4ccc(OCC5COC(Cn6cncn6)(c6ccc(Cl)cc6Cl)O5)cc4)CC3)cc2)c1=O` (stereo not given) [ITRACONAZOLE], the concentration at half-maximal activity (AC50) in experiment [5], in experiment [7], in [8], in [9], in [10] and in experiment [3] was greater than 30 µM throughout. In addition, the concentration at half-maximal activity (AC50) in experiment [4] is greater than 30 µM.

On to `Cc1cn([C@H]2C[C@H](N=[N+]=[N-])[C@@H](CO)O2)c(=O)[nH]c1=O` [ZIDOVUDINE], for which the half-maximal activity concentration (AC50) in [5] is greater than 10 µM; in experiment [6] it was greater than 30 µM; in experiment [7], greater than 30 µM; in experiment [8] it was greater than 10 µM; in [9], greater than 30 µM; in experiment [1], greater than 30 µM. Besides, the half-maximal activity concentration (AC50) in experiment [2], in [10], in [3] and in experiment [4] was greater than 30 µM each time.

`COCc1c(C(C)C)nc(C(C)C)c(/C=C/[C@@H](O)C[C@@H](O)CC(=O)O)c1-c1ccc(F)cc1` [CERIVASTATIN]: the values for the AC50 in [6], in experiment [1] and in experiment [2] were greater than 30 µM, greater than 30 µM and 21.5 µM, respectively.

`COc1cc(NC(C)CCCN)c2ncccc2c1` (stereo not given) [PRIMAQUINE]: the AC50 in experiment [7] is greater than 30 µM; in [1], 22.5 µM; in experiment [2] it was 16.2 µM; in experiment [10], greater than 30 µM; in experiment [4], 2.9 µM.

In the case of `CN(C)/N=N/c1[nH]cnc1C(N)=O` [DACARBAZINE], the AC50 is greater than 10 µM in [5]; greater than 10 µM in experiment [8]; greater than 30 µM in [9]; greater than 10 µM in experiment [10]; greater than 10 µM in experiment [3]; greater than 30 µM in experiment [4].

Take `Clc1ccc2nsnc2c1NC1=NCCN1` [TIZANIDINE]: the AC50 in [5] was greater than 10 µM; in experiment [7], greater than 30 µM; in experiment [8], greater than 10 µM; in experiment [9], greater than 30 µM; in experiment [10], greater than 30 µM; in experiment [3], greater than 30 µM. In experiment [4], this molecule had an AC50 greater than 30 µM.

As for `CC1=C(C(=O)O)N2C(=O)[C@@H](NC(=O)[C@H](N)c3ccccc3)[C@H]2SC1` [CEPHALEXIN ANHYDROUS], the AC50 in experiment [7] was greater than 30 µM; in experiment [8], greater than 10 µM; in experiment [9], greater than 30 µM; in [10] it was greater than 30 µM; in [3] it was greater than 30 µM; in experiment [4], greater than 30 µM.

For the molecule `Cc1cccc(Nc2ccccc2C(=O)O)c1C` [MEFENAMIC ACID], the AC50 in [5] is greater than 10 µM; in [6] it was greater than 30 µM; in [8], greater than 10 µM; in experiment [9], greater than 30 µM; in [1], greater than 30 µM; in experiment [2] it was greater than 30 µM. The AC50 in experiment [10] was 0.26 µM; in [3], greater than 10 µM; in experiment [4] it was greater than 30 µM.

With `Clc1ccc(C(c2ccccc2Cl)C(Cl)Cl)cc1` (stereo not given) [MITOTANE], the half-maximal activity concentration (AC50) is greater than 10 µM in experiment [5]; greater than 10 µM in experiment [8]; greater than 30 µM in [9]; greater than 10 µM in experiment [10]; greater than 10 µM in experiment [3]; greater than 30 µM in experiment [4].

`CCC1=C(C)CN(C(=O)NCCc2ccc(S(=O)(=O)NC(=O)N[C@H]3CC[C@H](C)CC3)cc2)C1=O` [GLIMEPIRIDE]: the AC50 in [6], in experiment [1] and in [2] was greater than 30 µM in each case.

For the molecule `CC[C@H]1OC(=O)[C@H](C)[C@@H](O[C@H]2C[C@@](C)(OC)[C@@H](O)[C@H](C)O2)[C@H](C)[C@@H](O[C@@H]2O[C@H](C)C[C@H](N(C)C)[C@H]2O)[C@](C)(O)C[C@@H](C)CN(C)[C@H](C)[C@@H](O)[C@]1(C)O` [AZITHROMYCIN], the AC50 in experiment [5] is greater than 10 µM; in experiment [6], greater than 30 µM; in [7] it was greater than 30 µM; in experiment [8], greater than 10 µM; in experiment [9], greater than 30 µM; in experiment [1] it was greater than 30 µM. Also, the half-maximal activity concentration (AC50) in experiment [2], in experiment [10], in experiment [3] and in experiment [4] was greater than 30 µM throughout.

The AC50 is the concentration giving half of the maximal activity seen.

Source of the values: ChEMBL document CHEMBL5291721, “A preclinical secondary pharmacology resource illuminates target-adverse drug reaction associations of marketed drugs” (Nat Commun, 2023).
